Results as given in patent US20210002641A1, “COMPOSITIONS AND METHODS FOR TREATING GRAVES DISEASE” (The Regents of the University of Michigan, priority 2018, published 2021).

Columns and labels:
3D N-OF organoids [1] = assay: Tissue stiffness of 3D N-OF organoids (microindentation compression test); type: cell-based, human; conditions: added day 1, kept to day 6; 10 μM GM6001, 5 mIU/ml TSH
Description: (§1) Orbital adipose tissues were obtained from surgical waste samples of de-identified euthyroid patients with GO undergoing orbital decompression and from non-GO subjects without inflammatory orbital disease, who underwent cosmetic eyelid surgery. OFs were isolated and grown as previously described (49). Briefly, tissues were minced into small pieces, placed on 150 mm culture dishes, and submerged in growth medium (DMEM supplemented with 10% v/v FBS, 1% v/v L-glutamine, 1% v/v antibiotic-antimycotic) at a sufficient depth to cover the tissue chunks. Explants were cultured in a humidified incubator • (at 37° C. with 5% CO2), with growth medium changes every 2-3 days. OFs from five GO patients five non-GO patients were isolated and expanded for subsequent experiments. All experiments were performed using OFs of 3-6 passages after the initial cell isolation.
A hanging droplet spheroid culture system was used to generate 3D organoids. […]
(§2) The mechanical testing of the organoids was performed using the Microsquisher (CellScale, Waterloo, ON, Canada) as recently reported (53). […] The organoids were compressed to 50% deformation (as determined by microscopic camera) for 20 seconds. The force used to produce 50% stain of displacement was measured by the cantilever and data were reported as force/displacement (μN/μm).

3D G-OF organoids [2] = assay: Immunofluorescent staining of ECM, LOX and HIF2A proteins in 3D G-OF organoids; type: cell-based, human; conditions: for ECM deposition (collagen types, FN) in G-OF organoids: immunofluorescence, 10 μM GM6001, 30 nM T3, 5 mIU/ml TSH, 0.5 mM BAPN, day 1-6
Experimental: (§3) A hanging droplet spheroid culture system was used to generate 3D organoids. To facilitate stable morphology, methylcellulose (Mehocel A4M) was added to the growth medium (52). Prior to seeding the hanging drop culture plate (#HDP1385, Sigma-Aldrich), cells were cultured in 100 mm or 150 mm dishes until reaching approximately 90% confluence. After washing with Hank's Balanced Salt Solution (HBSS), cells were detached using 0.25% Trypsin/EDTA and resuspended in growth medium. After centrifugation for 5 minutes at 300 g, the cell pellet was re-suspended in growth medium containing 0.25% w/v Methocel A4M. Volume was adjusted such that 20,000 cells were contained in 25 μL solution, and 25 μL drops were placed into each well of the drop culture plate (defined as day 0). Organoid medium (growth medium with 0.25% w/v methocel A4M) was used throughout the duration of spheroid culture. Every day, 14 μL culture medium was removed and 14 μL fresh culture medium added to each well.
(§4) Adipogenic differentiation was induced with (growth or organoid) medium containing 250 nM dexamethasone, 10 nM T3, 10 μM troglitazone, and 1 μg/ml insulin on days 1-5, followed by medium with 10 μM troglitazone and 1 μg/ml insulin on days 6-11, then with medium alone on day 12. For the analysis of the lipid droplet formation, organoids were transferred to super-low attachment 6 well dishes and incubated in HBSS containing BODIPY (#D3922, Thermo Fisher Scientific) at 1:500 ratio by volume for 1 hour, then fixed in 4% paraformaldehyde (PFA) in PBS for 10 minutes at room temperature. Fluorescence intensity of BODIPY-stained lipid droplets were measured using Nikon A1 confocal microscope (Tokyo, Japan) and quantified using Image J software version 1.51n (NIH, Bethesda, Md.). Several compounds were added to droplets on day 1 and maintained at the same concentration until collection of organoids on day 6. For individual experiments, these included 10 μM GM6001, (global MMP inhibitor), 30 nM T3, 5 mIU/ml TSH, 30 nM T3+5 mIU/ml TSH, 0.5 mM BAPN (LOX inhibitor), and 1 μM, 5 μM or 10 μM HIF2A antagonist.
Organoids were fixed in 4% PFA/PBS overnight with or without permeabilization in 0.5% Triton X-100 in PBS for 1 hour. To stain extracellular collagen and fibronectin, no permeabilization was performed, and all the detergents were excluded from the subsequent procedures. After blocking in 3% BSA/0.1% PBST for 3 hours at room temperature, organoids were washed 3 times for 30 minutes with PBST. Samples were incubated with primary antibody overnight at 4° C. […]

3D N-OF organoids [3] = assay: Immunofluorescent staining of ECM and HIF2A proteins in 3D N-OF organoids; type: cell-based, human; conditions: immunofluorescence; 10 μM GM6001
Experimental: as §3, with “Every day, 14 μL culture medium was removed and 14 μL fresh culture medium added to each well.” left out
(§5) Adipogenic differentiation was induced with (growth or organoid) medium containing 250 nM dexamethasone, 10 nM T3, 10 μM troglitazone, and 1 μg/ml insulin on days 1-5, followed by medium with 10 μM troglitazone and 1 μg/ml insulin on days 6-11, then with medium alone on day 12. […] Fluorescence intensity of BODIPY-stained lipid droplets were measured using Nikon A1 confocal microscope (Tokyo, Japan) and quantified using Image J software version 1.51n (NIH, Bethesda, Md.). […]

3D G-OF organoids [4] = assay: Tissue stiffness of 3D G-OF organoids (microindentation compression test); type: cell-based, human; conditions: for tissue stiffness of 3D G-OF organoids: added day 1, kept to day 6, 10 μM GM6001, 30 nM T3, 5 mIU/ml TSH, 0.5 mM BAPN, 1, 5 or 10 μM HIF2A antagonist
Description: as §1, §3
as §4, with “Fluorescence intensity of BODIPY-stained lipid droplets were measured using Nikon A1 confocal microscope (Tokyo, Japan) and quantified using Image J software version 1.51n (NIH, Bethesda, Md.).” left out
The mechanical testing of the organoids was performed using the Microsquisher (CellScale, Waterloo, ON, Canada) as recently reported (53). The device consists of a microscale parallelplate compression system equipped with a 406-μm diameter cantilever. Organoids placed on a 3 mm-square plate for analysis. Immediately following collecting, organoids were placed in a 40 mL HBSS fluid bath at 37° C. and the cantilever was lowered until the upper compression plate was in contact with the top of the organoid. The organoids were compressed to 50% deformation (as determined by microscopic camera) for 20 seconds. The force used to produce 50% stain of displacement was measured by the cantilever and data were reported as force/displacement (μN/μm).

mouse OF organoids = assay: Tissue stiffness of 3D mouse OF organoids expressing mutant HIF2A (HIF2dPA); type: cell-based; conditions: adeno-Cre-induced HIF2dPA
Experimental: ROSA26-STOP-HIF2dPA (flox/flox) mice were provided by Dr. Emestina Schipani (University of Michigan), and used for the isolation of orbital adipose tissue. Cells isolated from this depot were cultivated as previously reported (50) and cultured in a standard growth medium. A degradation-resistant HIF2A mutant was introduced by adenoviral Cre (Vector; Ad5 CMV-Cre)-recombinase by incubation for 16 hours with the virus. Adenoviral GFP (Vector; Ad5 CMV eGFP.dIE3) or Empty (Vector: Ad5 CMV pLpA.dIE3)-recombinase was used as controls.
(§6) A hanging droplet spheroid culture system was used to generate 3D organoids. To facilitate stable morphology, methylcellulose (Mehocel A4M) was added to the growth medium (52). Prior to seeding the hanging drop culture plate (#HDP1385, Sigma-Aldrich), cells were cultured in 100 mm or 150 mm dishes until reaching approximately 90% confluence. After washing with Hank's Balanced Salt Solution (HBSS), cells were detached using 0.25% Trypsin/EDTA and resuspended in growth medium. […]
as §2, with “(μN/μm). […]” for “(μN/μm).”

3D G-OF organoids [5] = assay: Organoid size (cross-sectional area) of 3D G-OF organoids; type: cell-based, human; conditions: T3 30 nM, TSH 5 mIU/ml, or combination; 6-day time course
Experimental: as §6, with “medium. After centrifugation for 5 minutes at 300 g, the cell pellet was re-suspended in growth medium containing 0.25% w/v Methocel A4M.” for “medium.”
as §5
Bright field images of each organoid were captured in 4× or 10× objective lenses using inverted microscope (Olympus IX70). The largest cross-sectional area (CSA) was calculated using Image J software version 1.51n. […] Intensity of immunofluorescent target proteins was quantified using NIH ImageJ software. […]

[6] = listed as allosteric HIF2A antagonist

SMILES: CNC(=O)[C@H](Cc1c[nH]c2ccccc12)NC(=O)[C@@H](CC(=O)NO)CC(C)C [GM6001]
- tissue stiffness of 3D N-OF organoids (3D N-OF organoids [1]): increased tissue stiffness
- ECM deposition (collagen types, FN) in G-OF organoids (3D G-OF organoids [2]): significant accumulation of type I, IV, and VI collagens
- ECM deposition (collagen types) in N-OF spheroids (3D N-OF organoids [3]): significant accumulation of type I, IV, and VI collagens
- tissue stiffness of 3D G-OF organoids (3D G-OF organoids [4]): increased tissue stiffness

SMILES: O=[N+]([O-])c1c(Nc2cc(F)cc(Cl)c2)ccc2nonc12 [C12H6ClFN4O3]
- protein levels of LOX and FN in G-OF organoids (3D G-OF organoids [2]; HIF2A antagonist 1 μM, 5 μM or 10 μM): reducing protein levels of LOX and FN, in a dose-dependent manner
- tissue stiffness of M22-stimulated G-OF organoids (3D G-OF organoids [4]; listed as C12H6ClFN4O03): reversed the tissue stiffness caused by TSHR activation
- tissue stiffness of M22-stimulated G-OF organoids (3D G-OF organoids [4]; [6]): reverses
- tissue stiffness of TSH-stimulated G-OF organoids (3D G-OF organoids [4]; listed as C12H6ClFN4O03): reversed the tissue stiffness caused by TSHR activation
- tissue stiffness of TSH-stimulated G-OF organoids (3D G-OF organoids [4]; [6]): reverses
- tissue stiffness of 3D G-OF organoids (3D G-OF organoids [4]): normalized the tissue stiffness

SMILES: N#CCCN.O=C(O)/C=C/C(=O)O [BAPN, 3-Aminopropionitrile fumarate salt]
- tissue stiffness of mouse OF organoids with mutant HIF2A expression (mouse OF organoids): completely ameliorated the increased tissue stiffness
- ECM deposition (collagen types, FN) in G-OF organoids (3D G-OF organoids [2]): effectively suppressed the deposition of collagens type I and IV, FN, but not collagen type III and VI
- tissue stiffness of 3D G-OF organoids (3D G-OF organoids [4]): reduction of tissue stiffness

SMILES: N[C@@H](Cc1cc(I)c(Oc2ccc(O)c(I)c2)c(I)c1)C(=O)O [T3, 3,3′,5-Triiodo-L-thyronine]
- organoid size (CSA) of G-OF organoids (3D G-OF organoids [5]): significant reduction in CSA
- ECM deposition (collagen types, FN) in G-OF organoids (3D G-OF organoids [2]): no discemable impact
